Measurements: the CheMixHub viscosity set
± gives the uncertainty stated by the source.

Test: xn = mol fraction of the nth substance listed

CC(C)(C)O + CO
303.2 K, 101.33 kPa
Conditions	viscosity [mPa·s]
x2 = 0.05	3.285 ± 0.026
x2 = 0.1	3.166 ± 0.025
x2 = 0.15	3 ± 0.024
x2 = 0.2	2.806 ± 0.023
x2 = 0.3	2.4 ± 0.019
x2 = 0.4	2.016 ± 0.016
x2 = 0.5	1.649 ± 0.014
x2 = 0.6	1.36 ± 0.011
x2 = 0.7	1.069 ± 0.009
x2 = 0.8	0.842 ± 0.007
x2 = 0.85	0.746 ± 0.007
x2 = 0.9	0.658 ± 0.006
x2 = 0.95	0.574 ± 0.005

COCCOCCOCCOC + CO
viscosity [mPa·s], 100 kPa
Conditions	293.15 K	298.15 K	303.15 K
x2 = 0.0543	2.129 ± 0.088	1.922 ± 0.08	1.733 ± 0.072
x2 = 0.0988	2.083 ± 0.086	1.882 ± 0.078	1.696 ± 0.07
x2 = 0.1978	1.982 ± 0.082	1.795 ± 0.074	1.621 ± 0.067
x2 = 0.3013	1.864 ± 0.077	1.689 ± 0.069	1.527 ± 0.063
x2 = 0.3994	1.737 ± 0.071	1.58 ± 0.065	1.434 ± 0.059
x2 = 0.5183	1.57 ± 0.064	1.433 ± 0.058	1.302 ± 0.053
x2 = 0.5962	1.443 ± 0.059	1.321 ± 0.054	1.203 ± 0.049
x2 = 0.6983	1.26 ± 0.051	1.158 ± 0.047	1.058 ± 0.043
x2 = 0.7969	1.055 ± 0.043	0.975 ± 0.04	0.894 ± 0.036
x2 = 0.8472	0.944 ± 0.038	0.875 ± 0.036	0.804 ± 0.033
x2 = 0.8993	0.825 ± 0.033	0.767 ± 0.031	0.705 ± 0.029
x2 = 0.9489	0.711 ± 0.029	0.662 ± 0.027	0.608 ± 0.025
